Earlier results in patent publication EP4660212A1, “POLYVINYL ALCOHOL-BASED POLYMER” (Japan Vam & Poval Co., Ltd., priority 2023, dated 2024).

Details: water at 20°C

Structure (SMILES) | solubility in 100 mL (100 g) of water
c1ccc2cc3ccccc3cc2c1 [anthracene] | about 0.13 mg/100 g water
CCOc1ccccc1C(N)=O [ethenzamide] | about 100 mg/100 g water
